For orientation: melting point means the temperature of the solid-liquid transition.

On to `CC(O)c1ncnc(N2CC(C)N(c3nc(O)nc(-c4ccccc4)n3)C(C)C2)n1` (stereo not drawn) [Example 14, 1-{4-[4-(4-Hydroxy-6-phenyl-[1,3,5]triazin-2-yl)-3R,5S-dimethyl-piperazin-1-yl]-[1,3,5]triazin-2-yl}-ethanol], for which the melting point was greater than 275 °C.

The molecule `CC1CN(c2ncnc(-c3ccccc3)n2)CC(C)N1c1ncnc(CO)n1` (stereo not drawn) [Example 16, 1-{4-[4-(4-Phenyl-[1,3,5]triazin-2-yl)-2R,6S-dimethyl-piperazin-1-yl]-[1,3,5]triazin-2-yl}-methanol] showed a melting point of 197 to 198 °C.

`COc1nc(C)nc(N2C(C)CN(c3ncnc(CO)n3)CC2C)n1` (stereo not drawn) [Example 12, 1-{4-[4-(4-methoxy-6-methyl-[1,3,5]triazin-2-yl)-3R,5S-dimethyl-piperazin-1-yl]-[1,3,5]triazin-2-yl}-methanol] showed a melting point of 155 to 160 °C.

In turn, `Cc1nc(O)nc(N2C(C)CN(c3ncnc(C(C)O)n3)CC2C)n1` (stereo not drawn) [Example 15, 1-{4-[4-(4-Hydroxy-3-methyl-[1,3,5]triazin-2-yl)-3R,5S-dimethyl-piperazin-1-yl]-[1,3,5]triazin-2-yl}-ethanol] registered a melting point of 263 to 265 °C.

With `CC1CN(c2ncnc(CO)n2)CC(C)N1c1ncnc(CO)n1` (stereo not drawn) [Example 11, 1-{4-[4-(4-Hydroxymethyl-[1,3,5]triazin-2-yl)-3R,5S-dimethyl-piperazin-1-yl]-[1,3,5]triazin-2-yl}-methanol], the melting point was 224 to 225 °C.

Consider `CC1CN(c2ncnc(CO)n2)CC(C)N1c1ncnc(-c2ccccc2)n1` (stereo not drawn) [Example 10, 1-{4-[4-(4-phenyl-[1,3,5]triazin-2-yl)-3R,5S-dimethyl-piperazin-1-yl]-[1,3,5]triazin-2-yl}-methanol], for which the melting point fell in the range of 206 to 207 °C.
